Oligonucleotides are given in HELM: sugar(base)linkage, 5' to 3'; d 2'-deoxyribose, r ribose, m 2'-O-methylribose, p phosphate. ss, as = sense and antisense strand
The substances below were run against TMEM63B (assay: reporter assay of Huesken 2005). Conditions: siRNA.
Also: test concentration or dose not given here.

Compared with “RNA1{r(C)p.r(C)p.r(U)p.r(G)p.r(G)p.r(U)p.r(C)p.r(A)p.r(U)p.r(C)p.r(A)p.r(A)p.r(U)p.r(G)p.r(U)p.r(C)p.r(G)p.r(U)p.r(C)p.d(T)p.d(T)}|RNA2{r(G)p.r(A)p.r(C)p.r(G)p.r(A)p.r(C)p.r(A)p.r(U)p.r(U)p.r(G)p.r(A)p.r(U)p.r(G)p.r(A)p.r(C)p.r(C)p.r(A)p.r(G)p.r(G)p.d(C)p.d(A)}$$$RNA1{StrandType:ss}|RNA2{StrandType:as}$”, “RNA1{r(C)p.r(C)p.r(U)p.r(U)p.r(C)p.r(C)p.r(A)p.r(C)p.r(A)p.r(A)p.r(U)p.r(G)p.r(A)p.r(G)p.r(A)p.r(C)p.r(U)p.r(A)p.r(U)p.d(T)p.d(T)}|RNA2{r(A)p.r(U)p.r(A)p.r(G)p.r(U)p.r(C)p.r(U)p.r(C)p.r(A)p.r(U)p.r(U)p.r(G)p.r(U)p.r(G)p.r(G)p.r(A)p.r(A)p.r(G)p.r(G)p.d(T)p.d(G)}$$$RNA1{StrandType:ss}|RNA2{StrandType:as}$” is higher in normalised inhibition (eCFP-eYFP dual reporter): 60.4% for the first, 72.3% for the second.

First: RNA1{r(C)p.r(C)p.r(U)p.r(U)p.r(U)p.r(G)p.r(U)p.r(C)p.r(A)p.r(C)p.r(C)p.r(U)p.r(U)p.r(C)p.r(C)p.r(A)p.r(C)p.r(A)p.r(A)p.d(T)p.d(T)}|RNA2{r(U)p.r(U)p.r(G)p.r(U)p.r(G)p.r(G)p.r(A)p.r(A)p.r(G)p.r(G)p.r(U)p.r(G)p.r(A)p.r(C)p.r(A)p.r(A)p.r(A)p.r(G)p.r(G)p.d(C)p.d(C)}$$$RNA1{StrandType:ss}|RNA2{StrandType:as}$
Second: RNA1{r(C)p.r(G)p.r(A)p.r(G)p.r(G)p.r(C)p.r(U)p.r(G)p.r(U)p.r(G)p.r(A)p.r(G)p.r(C)p.r(A)p.r(G)p.r(G)p.r(U)p.r(G)p.r(G)p.d(T)p.d(T)}|RNA2{r(C)p.r(C)p.r(A)p.r(C)p.r(C)p.r(U)p.r(G)p.r(C)p.r(U)p.r(C)p.r(A)p.r(C)p.r(A)p.r(G)p.r(C)p.r(C)p.r(U)p.r(C)p.r(G)p.d(C)p.d(A)}$$$RNA1{StrandType:ss}|RNA2{StrandType:as}$
The normalised inhibition (eCFP-eYFP dual reporter) of the first is higher: 74.2% for the first, 42.2% for the second.

Compared with “RNA1{r(C)p.r(G)p.r(A)p.r(U)p.r(G)p.r(C)p.r(A)p.r(G)p.r(A)p.r(G)p.r(A)p.r(G)p.r(G)p.r(A)p.r(A)p.r(G)p.r(A)p.r(A)p.r(G)p.d(T)p.d(T)}|RNA2{r(C)p.r(U)p.r(U)p.r(C)p.r(U)p.r(U)p.r(C)p.r(C)p.r(U)p.r(C)p.r(U)p.r(C)p.r(U)p.r(G)p.r(C)p.r(A)p.r(U)p.r(C)p.r(G)p.d(A)p.d(G)}$$$RNA1{StrandType:ss}|RNA2{StrandType:as}$”, “RNA1{r(C)p.r(G)p.r(C)p.r(A)p.r(U)p.r(C)p.r(C)p.r(C)p.r(A)p.r(G)p.r(G)p.r(C)p.r(C)p.r(U)p.r(G)p.r(C)p.r(U)p.r(C)p.r(A)p.d(T)p.d(T)}|RNA2{r(U)p.r(G)p.r(A)p.r(G)p.r(C)p.r(A)p.r(G)p.r(G)p.r(C)p.r(C)p.r(U)p.r(G)p.r(G)p.r(G)p.r(A)p.r(U)p.r(G)p.r(C)p.r(G)p.d(C)p.d(A)}$$$RNA1{StrandType:ss}|RNA2{StrandType:as}$” is higher in normalised inhibition (eCFP-eYFP dual reporter): 56.4% for the first, 74.9% for the second.

Going from “RNA1{r(C)p.r(G)p.r(C)p.r(C)p.r(C)p.r(U)p.r(C)p.r(A)p.r(C)p.r(G)p.r(G)p.r(A)p.r(C)p.r(A)p.r(C)p.r(A)p.r(G)p.r(A)p.r(C)p.d(T)p.d(T)}|RNA2{r(G)p.r(U)p.r(C)p.r(U)p.r(G)p.r(U)p.r(G)p.r(U)p.r(C)p.r(C)p.r(G)p.r(U)p.r(G)p.r(A)p.r(G)p.r(G)p.r(G)p.r(C)p.r(G)p.d(T)p.d(C)}$$$RNA1{StrandType:ss}|RNA2{StrandType:as}$” to “RNA1{r(C)p.r(G)p.r(C)p.r(U)p.r(A)p.r(C)p.r(A)p.r(A)p.r(G)p.r(G)p.r(A)p.r(G)p.r(G)p.r(A)p.r(U)p.r(G)p.r(A)p.r(U)p.r(C)p.d(T)p.d(T)}|RNA2{r(G)p.r(A)p.r(U)p.r(C)p.r(A)p.r(U)p.r(C)p.r(C)p.r(U)p.r(C)p.r(C)p.r(U)p.r(U)p.r(G)p.r(U)p.r(A)p.r(G)p.r(C)p.r(G)p.d(C)p.d(A)}$$$RNA1{StrandType:ss}|RNA2{StrandType:as}$”, the normalised inhibition (eCFP-eYFP dual reporter) rises from 59.1% to 79.3%.

Compared with “RNA1{r(C)p.r(G)p.r(C)p.r(U)p.r(C)p.r(A)p.r(G)p.r(G)p.r(U)p.r(G)p.r(C)p.r(U)p.r(G)p.r(C)p.r(A)p.r(G)p.r(G)p.r(A)p.r(C)p.d(T)p.d(T)}|RNA2{r(G)p.r(U)p.r(C)p.r(C)p.r(U)p.r(G)p.r(C)p.r(A)p.r(G)p.r(C)p.r(A)p.r(C)p.r(C)p.r(U)p.r(G)p.r(A)p.r(G)p.r(C)p.r(G)p.d(A)p.d(T)}$$$RNA1{StrandType:ss}|RNA2{StrandType:as}$”, “RNA1{r(C)p.r(G)p.r(G)p.r(C)p.r(C)p.r(G)p.r(C)p.r(C)p.r(G)p.r(A)p.r(G)p.r(A)p.r(G)p.r(G)p.r(C)p.r(G)p.r(C)p.r(A)p.r(A)p.d(T)p.d(T)}|RNA2{r(U)p.r(U)p.r(G)p.r(C)p.r(G)p.r(C)p.r(C)p.r(U)p.r(C)p.r(U)p.r(C)p.r(G)p.r(G)p.r(C)p.r(G)p.r(G)p.r(C)p.r(C)p.r(G)p.d(A)p.d(G)}$$$RNA1{StrandType:ss}|RNA2{StrandType:as}$” is higher in normalised inhibition (eCFP-eYFP dual reporter): 46.2% for the first, 72.9% for the second.

First: RNA1{r(C)p.r(G)p.r(U)p.r(G)p.r(U)p.r(G)p.r(U)p.r(A)p.r(A)p.r(A)p.r(U)p.r(G)p.r(C)p.r(C)p.r(A)p.r(G)p.r(G)p.r(G)p.r(C)p.d(T)p.d(T)}|RNA2{r(G)p.r(C)p.r(C)p.r(C)p.r(U)p.r(G)p.r(G)p.r(C)p.r(A)p.r(U)p.r(U)p.r(U)p.r(A)p.r(C)p.r(A)p.r(C)p.r(A)p.r(C)p.r(G)p.d(T)p.d(T)}$$$RNA1{StrandType:ss}|RNA2{StrandType:as}$
Second: RNA1{r(C)p.r(G)p.r(U)p.r(G)p.r(U)p.r(U)p.r(A)p.r(C)p.r(A)p.r(A)p.r(C)p.r(G)p.r(U)p.r(G)p.r(G)p.r(C)p.r(U)p.r(C)p.r(G)p.d(T)p.d(T)}|RNA2{r(C)p.r(G)p.r(A)p.r(G)p.r(C)p.r(C)p.r(A)p.r(C)p.r(G)p.r(U)p.r(U)p.r(G)p.r(U)p.r(A)p.r(A)p.r(C)p.r(A)p.r(C)p.r(G)p.d(G)p.d(G)}$$$RNA1{StrandType:ss}|RNA2{StrandType:as}$
The normalised inhibition (eCFP-eYFP dual reporter) of the first is lower: 52.1% for the first, 91.6% for the second.

Going from “RNA1{r(C)p.r(U)p.r(A)p.r(G)p.r(C)p.r(U)p.r(C)p.r(C)p.r(C)p.r(A)p.r(C)p.r(G)p.r(U)p.r(C)p.r(U)p.r(A)p.r(U)p.r(G)p.r(U)p.d(T)p.d(T)}|RNA2{r(A)p.r(C)p.r(A)p.r(U)p.r(A)p.r(G)p.r(A)p.r(C)p.r(G)p.r(U)p.r(G)p.r(G)p.r(G)p.r(A)p.r(G)p.r(C)p.r(U)p.r(A)p.r(G)p.d(G)p.d(A)}$$$RNA1{StrandType:ss}|RNA2{StrandType:as}$” to “RNA1{r(C)p.r(U)p.r(C)p.r(A)p.r(C)p.r(G)p.r(G)p.r(A)p.r(C)p.r(A)p.r(C)p.r(A)p.r(G)p.r(A)p.r(C)p.r(U)p.r(U)p.r(C)p.r(C)p.d(T)p.d(T)}|RNA2{r(G)p.r(G)p.r(A)p.r(A)p.r(G)p.r(U)p.r(C)p.r(U)p.r(G)p.r(U)p.r(G)p.r(U)p.r(C)p.r(C)p.r(G)p.r(U)p.r(G)p.r(A)p.r(G)p.d(G)p.d(G)}$$$RNA1{StrandType:ss}|RNA2{StrandType:as}$”, the normalised inhibition (eCFP-eYFP dual reporter) falls from 66.7% to 61.7%.

Compared with “RNA1{r(C)p.r(U)p.r(C)p.r(C)p.r(G)p.r(U)p.r(U)p.r(G)p.r(A)p.r(C)p.r(U)p.r(U)p.r(U)p.r(G)p.r(A)p.r(C)p.r(C)p.r(A)p.r(A)p.d(T)p.d(T)}|RNA2{r(U)p.r(U)p.r(G)p.r(G)p.r(U)p.r(C)p.r(A)p.r(A)p.r(A)p.r(G)p.r(U)p.r(C)p.r(A)p.r(A)p.r(C)p.r(G)p.r(G)p.r(A)p.r(G)p.d(C)p.d(T)}$$$RNA1{StrandType:ss}|RNA2{StrandType:as}$”, “RNA1{r(C)p.r(U)p.r(C)p.r(C)p.r(U)p.r(C)p.r(U)p.r(U)p.r(C)p.r(U)p.r(U)p.r(C)p.r(C)p.r(U)p.r(C)p.r(A)p.r(C)p.r(C)p.r(A)p.d(T)p.d(T)}|RNA2{r(U)p.r(G)p.r(G)p.r(U)p.r(G)p.r(A)p.r(G)p.r(G)p.r(A)p.r(A)p.r(G)p.r(A)p.r(A)p.r(G)p.r(A)p.r(G)p.r(G)p.r(A)p.r(G)p.d(G)p.d(A)}$$$RNA1{StrandType:ss}|RNA2{StrandType:as}$” is lower in normalised inhibition (eCFP-eYFP dual reporter): 98.6% for the first, 68% for the second.

Going from “RNA1{r(C)p.r(U)p.r(C)p.r(U)p.r(A)p.r(C)p.r(U)p.r(A)p.r(C)p.r(G)p.r(C)p.r(C)p.r(U)p.r(A)p.r(C)p.r(C)p.r(U)p.r(G)p.r(C)p.d(T)p.d(T)}|RNA2{r(G)p.r(C)p.r(A)p.r(G)p.r(G)p.r(U)p.r(A)p.r(G)p.r(G)p.r(C)p.r(G)p.r(U)p.r(A)p.r(G)p.r(U)p.r(A)p.r(G)p.r(A)p.r(G)p.d(A)p.d(T)}$$$RNA1{StrandType:ss}|RNA2{StrandType:as}$” to “RNA1{r(C)p.r(U)p.r(C)p.r(U)p.r(C)p.r(C)p.r(G)p.r(U)p.r(A)p.r(G)p.r(G)p.r(C)p.r(A)p.r(U)p.r(C)p.r(G)p.r(U)p.r(G)p.r(C)p.d(T)p.d(T)}|RNA2{r(G)p.r(C)p.r(A)p.r(C)p.r(G)p.r(A)p.r(U)p.r(G)p.r(C)p.r(C)p.r(U)p.r(A)p.r(C)p.r(G)p.r(G)p.r(A)p.r(G)p.r(A)p.r(G)p.d(G)p.d(A)}$$$RNA1{StrandType:ss}|RNA2{StrandType:as}$”, the normalised inhibition (eCFP-eYFP dual reporter) rises from 56.4% to 75.8%.

Compared with “RNA1{r(C)p.r(U)p.r(G)p.r(C)p.r(C)p.r(G)p.r(G)p.r(C)p.r(C)p.r(A)p.r(A)p.r(G)p.r(C)p.r(U)p.r(G)p.r(G)p.r(A)p.r(C)p.r(A)p.d(T)p.d(T)}|RNA2{r(U)p.r(G)p.r(U)p.r(C)p.r(C)p.r(A)p.r(G)p.r(C)p.r(U)p.r(U)p.r(G)p.r(G)p.r(C)p.r(C)p.r(G)p.r(G)p.r(C)p.r(A)p.r(G)p.d(G)p.d(T)}$$$RNA1{StrandType:ss}|RNA2{StrandType:as}$”, “RNA1{r(C)p.r(U)p.r(G)p.r(C)p.r(G)p.r(C)p.r(U)p.r(G)p.r(C)p.r(C)p.r(U)p.r(G)p.r(G)p.r(U)p.r(C)p.r(A)p.r(U)p.r(C)p.r(A)p.d(T)p.d(T)}|RNA2{r(U)p.r(G)p.r(A)p.r(U)p.r(G)p.r(A)p.r(C)p.r(C)p.r(A)p.r(G)p.r(G)p.r(C)p.r(A)p.r(G)p.r(C)p.r(G)p.r(C)p.r(A)p.r(G)p.d(C)p.d(C)}$$$RNA1{StrandType:ss}|RNA2{StrandType:as}$” is higher in normalised inhibition (eCFP-eYFP dual reporter): 65.2% for the first, 66.1% for the second.
